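The compound was tested at five concentrations on cells cultured in 96-well plates, with a 48-hour exposure period. The concentration for full growth arrest is given as TGI.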
How the values were obtained:
Test in all cases: inhibition of tumour cell growth, NCI panel, 48 h
SNB-78 CNS = system: SNB-78 CNS
M19-MEL melanoma = system: M19-MEL melanoma
DMS 273 small cell lung = system: DMS 273 small cell lung
SF-539 CNS = system: SF-539 CNS
SF-268 CNS = system: SF-268 CNS
LXFL 529 NSCLC = system: LXFL 529 NSCLC
HOP-18 NSCLC = system: HOP-18 NSCLC
A549 NSCLC = system: A549 NSCLC
DLD-1 colon = system: DLD-1 colon
KM20L2 colon = system: KM20L2 colon
OVCAR-5 ovarian = system: OVCAR-5 ovarian
DMS 114 small cell lung = system: DMS 114 small cell lung
OVCAR-8 ovarian = system: OVCAR-8 ovarian
HL-60(TB) leukemia = system: HL-60(TB) leukemia
XF 498 CNS = system: XF 498 CNS

SMILES | TGI (SNB-78 CNS) [µM] | TGI (M19-MEL melanoma) [µM] | TGI (DMS 273 small cell lung) [µM] | TGI (SF-539 CNS) [µM] | TGI (SF-268 CNS) [µM] | TGI (LXFL 529 NSCLC) [µM] | TGI (HOP-18 NSCLC) [µM] | TGI (A549 NSCLC) [µM] | TGI (DLD-1 colon) [µM] | TGI (KM20L2 colon) [µM] | TGI (OVCAR-5 ovarian) [µM] | TGI (DMS 114 small cell lung) [µM] | TGI (OVCAR-8 ovarian) [µM] | TGI (HL-60(TB) leukemia) [µM] | TGI (XF 498 CNS) [µM]
c1ccc2c(C3NCCc4[nH]cnc43)cccc2c1 (configuration not stated) | > 100 | > 100 | > 100 | > 100 | > 100 | > 100 | > 100 | > 100 | > 100 | > 100 | > 100 | > 100 | > 100 |  | 
COc1cc(OC)c(/C=C2\N=C(C)N(Nc3nnc(NN4C(=O)/C(=C/c5c(OC)cc(OC)cc5OC)N=C4C)c4ccccc34)C2=O)c(OC)c1 | > 100 | > 100 | > 100 | > 100 | > 100 | > 100 | > 100 | > 100 | > 100 | > 100 | > 100 | > 100 | > 100 | > 100 | 
Cc1cc(=O)[nH]c(NN2C(Cl)C(=O)C2c2ccc(Cl)cc2)n1 (configuration not stated) | 39 | 35.7 | 25.9 | 33.3 | > 66.2 | 19.2 | 23.2 | > 64.8 |  | 44.5 | > 60.4 | 30 | 56.5 | 12.7 | 
O=C1OC(CCCl)(c2ccccc2)CC1CN1CCOCC1 (configuration not stated) | 81.5 | 45.6 |  | 70.1 | > 100 | 33.7 |  | > 100 | 34 | > 100 | > 100 | 42.9 | 38.5 | 26.5 | 29.3
CC(=O)OC1C(O)COC(O[C@H]2CC[C@]34C[C@]35CC[C@]3(C)C([C@@]6(C)CC[C@@H](C(C)(C)O)O6)[C@@H](O)C[C@@]3(C)C5C[C@H](OC3OCC(O)C(O)C3O)[C@H]4C2(C)C)C1OC1OCC(O)C(O)C1O (some centres not stated) |  |  |  | > 100 | > 100 |  |  | > 100 |  |  | > 100 |  | > 100 | > 100 | 
CC1(C)CS(=O)(=O)CC(C)(C)C(=N/N)/C1=N\N |  |  |  | > 100 | > 100 |  |  | > 100 |  |  | > 100 |  | > 100 | > 100 | 
O=C(NNC1=NCCN1)c1ccco1 |  |  |  | > 100 | > 100 |  |  | > 100 |  |  | > 100 |  | > 100 | > 100 | 
COc1ccc2[nH]c3c(c2c1)CCn1c-3nc2ccccc2c1=O |  |  |  | > 25 | > 25 |  |  | > 25 |  |  | > 25 |  | > 25 | > 25 | 
COc1cc(OC)c(OC)cc1/C=N/N=C(\N)NO |  |  |  | > 100 | > 100 |  |  | > 100 |  |  | > 100 |  | > 100 | > 100 | 
CCOC(=O)c1sc2c(c1OC(=O)c1cccs1)c(=O)n(-c1ccccc1)c(=S)n2-c1ccccc1 |  |  |  | 36 | > 100 |  |  | 38.8 |  |  | 50.7 |  | 44.9 | 48.4 | 
[N-]=[N+]=Nc1c(-c2ccccc2)c(Cl)nc2ccccc12 |  |  |  | > 100 | > 100 |  |  | > 100 |  |  | > 100 |  | > 100 | > 100 | 
CCOC(=O)C1=C(O)C(=O)c2ccsc2C1=O | > 100 | 40.5 | > 100 | > 100 | > 100 |  | > 100 | > 100 | > 100 | > 100 | > 100 | > 100 | > 100 | > 100 | 
CC12NN=NC1C(=O)NC2=O (configuration not stated) | > 100 | > 100 | > 100 | > 100 | > 100 | > 100 |  | > 100 | > 100 | > 100 |  | > 100 | > 100 | > 100 | 
O=c1cc(-c2cccc(Cl)c2)[nH]c2ncccc12 |  |  |  | 0.374 | > 88.8 |  |  | > 100 |  |  | > 100 |  | > 100 | 0.152 | 
COC(=O)c1ccc2c(O)c(O)ccc2c1 |  |  |  | 34.2 | 33.9 |  |  | 42 |  |  | 36.5 |  | 37.2 | 5.06 | 
CCC1C(c2cc(OC)c(OC)c(OC)c2)c2cc3c(cc2OC1N1CCCC1)OCO3 (configuration not stated) |  |  |  | 5.53 | 33 |  |  | 20.2 |  |  | 57.4 |  | 23.9 | > 23.3 | 
CCCN(C(=O)c1c(Cl)nnc(Cl)c1C(=O)c1cc(Cl)nnc1Cl)c1cc(Cl)nnc1Cl |  |  |  | 40 | 20.2 |  |  | > 100 |  |  | 41.2 |  | 5.78 | 7.16 | 
CCOC(=O)CSc1nc(-c2ccccc2)c(C#N)c(=O)[nH]1 |  |  |  | > 100 | > 100 |  |  | > 100 |  |  | > 100 |  | > 100 | > 100 | 
CC1=NN(c2ccccc2)C(=O)/C1=C/c1ccc(O)cc1 |  |  |  | > 100 | > 100 |  |  | > 100 |  |  | > 100 |  | > 100 | > 100 | 
O=C(NCCCCCCCCNC(=O)c1cc(-c2ccccc2)nc2ccccc12)c1cc(-c2ccccc2)nc2ccccc12 |  |  |  | > 100 | > 100 |  |  | > 100 |  |  | > 100 |  | > 100 | > 100 | 

Reference: PubChem BioAssay (NCI)
